We go through 53 compounds from PubChem BioAssay AID686969 (The Scripps Research Institute Molecular Screening Center, 2013).

Calls of active or inactive are those of the source. How the calls were made is not given here.

The assay concerns the target methionyl-tRNA synthetase (Trypanosoma brucei). Kind of assay: inhibition of trypanosomal methionyl-tRNA synthetase – biochemical, fluorescence polarization, dose response, orthogonal assay for T. brucei MetRS inhibitor project, late-stage follow-up (AID 686969). On the technique in general: Fluorescence polarisation rises when a labelled molecule tumbles more slowly, as on binding a larger partner.
As a reminder, the IC50 is the concentration at which inhibition is half-maximal. Regarding `Cc1ccc(NC(=O)CN(C)C(=O)CCSc2ccc(F)cc2)cc1`, the half-maximal inhibitory concentration (IC50) is 5730 nM.

With `COc1ccc(OCC(O)CNC(=O)Nc2ccc(Cl)cc2)cc1` (stereo not drawn), the IC50 is 7550 nM. `Clc1ccc(-c2nnc(SCc3nc4ccccc4[nH]3)o2)c(Cl)c1`: the IC50 is 933 nM.

As for `O=C(C[C@H]1C(=O)N(Cc2ccccc2)C[C@@H]1c1ccc(Br)cc1)Nc1ccc(Br)cc1`, the IC50 is 2970 nM. As for `O=C(CC=NOCc1ccc([N+](=O)[O-])cc1)Nc1ccc(Br)cc1`, the IC50 was 1310 nM. For `CCO[C@@H]1OC(C(=O)NCc2nc3ccccc3[nH]2)=C[C@H](c2ccc(Br)cc2)[C@H]1CCCO`, the IC50 entry was “inactive”. Next, `O=C(CC=NOCc1ccc([N+](=O)[O-])cc1)Nc1ccc(Cl)cc1`: 2870 nM; `CN(CC(=O)Nc1ccc(Cl)cc1)C(=O)c1ccc(-n2cncn2)c([N+](=O)[O-])c1`: 1910 nM; `CC(C)OCCCN1CC(=O)N2C(c3cccc([N+](=O)[O-])c3)c3[nH]c4ccccc4c3C[C@H]2C1=O` (stereo partly drawn): 1490 nM.

`C[C@H](O)[C@@H]1C(=O)N2CCc3c([nH]c4ccccc34)[C@@H]2C[C@@H]1N(C)Cc1ccc2c(c1)OCO2`: the concentration for half-maximal inhibition (IC50) is 439 nM. The same measure for `O=C(NCc1nc2ccccc2[nH]1)C1=C[C@@H](C2CC2)C[C@@H](OCc2ccc(CO)cc2)O1`: 2660 nM. For `O=C1CC(N(CCc2ccccc2)C(=S)Nc2ccccc2)C(=O)N1c1ccc(Br)cc1` (stereo not drawn), the IC50 was 566 nM. Consider `COc1ccccc1NS(=O)(=O)c1cccc(NC(=O)Nc2ccccc2)c1`, for which the concentration for half-maximal inhibition (IC50) was 600 nM. Consider `CC(=O)c1c[nH]c(C(=O)NCc2cccc(C(F)(F)F)c2)c1`, for which the half-maximal inhibitory concentration (IC50) was 2220 nM.

With `O=C(Cn1cnc2ccccc21)Nc1cccc([N+](=O)[O-])c1`, the IC50 was 2800 nM. The same measure for `O=C(NCCc1nc2ccccc2[nH]1)c1ccc(Cl)c([N+](=O)[O-])c1`: 331 nM.

For the compound `COc1ccccc1-n1c(SCC(=O)Nc2ccc(Cl)cc2)nc(O)c(Cc2ccccc2)c1=O`, the half-maximal inhibitory concentration (IC50) is 4590 nM. The same measure for `O=C(NCc1nc2ccccc2[nH]1)C1=C[C@@H](c2ccccc2)C[C@@H](OCc2ccc(CO)cc2)O1`: 2210 nM; for `O=C(NCc1nc2ccccc2[nH]1)C1=C[C@H](c2ccc(Br)cc2)C[C@H](OCCCCO)O1`: 3110 nM; for `O=C(CCC(=O)Nc1cccc([N+](=O)[O-])c1)NN=Cc1cccs1`: 8370 nM.

Consider `CCOC(=O)N1CCC(Nc2c(Nc3ccc(F)cc3)c(=O)c2=O)CC1`, for which the 50% inhibitory concentration (IC50) is 7300 nM. Next, `Oc1c(Cl)cc(Cl)cc1CNc1nc2ccccc2[nH]1`: 1770 nM; `O=C(Cn1cc(C(=O)C(=O)N2CCOCC2)c2ccccc21)Nc1cccc(C(F)(F)F)c1`: 292 nM; `O=C(NCc1nc2ccccc2[nH]1)C1=C[C@H](c2csc3ccccc23)C[C@H](OCCCCO)O1`: 1790 nM. `COc1ccc2[nH]c3nc(SCC(=O)Nc4ccc5c(c4)OCO5)nnc3c2c1`: the IC50 is 926 nM. In the case of `O=C(N/C(=C\c1cccnc1)c1nc2ccccc2[nH]1)c1cccc(Br)c1`, the 50% inhibitory concentration (IC50) is 5650 nM. For the compound `O=C(NCc1nc2ccccc2[nH]1)C1=C[C@H](c2ccccc2)C[C@H](OCc2ccc(CO)cc2)O1`, the IC50 entry was “inactive”. The same measure for `O=C(CC(=O)Nc1cccc(Cl)c1)NN=Cc1ccccc1`: 6030 nM. Consider `O=C(NCc1nc2ccccc2[nH]1)C1=C[C@H](c2ccc3c(c2)OCO3)C[C@H](OCCCCO)O1`, for which the IC50 is 6220 nM. The same measure for `COc1cccc(NC(=O)CSc2nnc3c(n2)[nH]c2ccc(C)cc23)c1`: 75.1 nM. `CN(Cc1cc(Cl)cc(Cl)c1)[C@H]1C[C@H]2c3[nH]c4ccccc4c3CCN2C(=O)[C@H]1CO`: the IC50 was 922 nM. Next, `CC(=O)c1ccc(N2CCN(C(=O)CCCn3c(=O)[nH]c4ccc(Br)cc4c3=O)CC2)cc1`: 879 nM; `O=C(NCc1nc2ccccc2[nH]1)C1=C[C@@H](c2ccc3c(c2)OCO3)C[C@@H](OCCCCO)O1`: 2030 nM. The same measure for `CCCCCCCCCC1NC(C(=O)O)Cc2c1[nH]c1ccccc21` (stereo not drawn): 4270 nM. Take `CN1CC(=O)N2C(c3cccc([N+](=O)[O-])c3)c3[nH]c4ccccc4c3C[C@H]2C1=O` (stereo partly drawn): the concentration for half-maximal inhibition (IC50) was 717 nM. As to `O=C(NCc1nc2ccccc2[nH]1)C1=C[C@@H](c2ccc(Br)cc2)C[C@@H](OCc2ccc(CO)cc2)O1`, the 50% inhibitory concentration (IC50) is 2030 nM. Regarding `CC(CC(=O)Nc1cccc(Br)c1)=NNC(=O)c1ccc(O)cc1O`, the IC50 was 2360 nM. For `Brc1cnc2nc(SCc3nc4ccccc4[nH]3)[nH]c2c1`, the IC50 is 4270 nM. As to `O=C(NNC(=O)c1ccc(-n2cncn2)c([N+](=O)[O-])c1)c1ccc(Cl)cc1`, the half-inhibitory concentration (IC50) was 7410 nM.

`O=C1CC(SCc2nc3ccccc3[nH]2)C(=O)N1c1cccc(Cl)c1` (stereo not drawn): the IC50 entry was “inactive”. The same measure for `CC(C)(C)[C@@H]1C=C(C(=O)NCc2nc3ccccc3[nH]2)O[C@H](OCc2ccc(CO)cc2)C1`: 8120 nM; for `O=C(NCc1nc2ccccc2[nH]1)C1=C[C@@H](c2ccc(Br)cc2)C[C@@H](OCCCCO)O1`: 1140 nM. For `O=C1[C@@H]2Cc3c([nH]c4ccccc34)C(c3cccc([N+](=O)[O-])c3)N2C(=O)CN1CCCO` (stereo partly drawn), the concentration for half-maximal inhibition (IC50) was 933 nM. `CC(C)(C)[C@H]1C=C(C(=O)NCc2nc3ccccc3[nH]2)O[C@@H](OCc2ccc(CO)cc2)C1`: the concentration for half-maximal inhibition (IC50) is 5390 nM. Regarding `O=C(NNC(=O)c1cc(-c2ccc(Cl)c(Cl)c2)nc2ccccc12)Nc1ccccc1`, the half-inhibitory concentration (IC50) is 1490 nM. Regarding `CCO[C@H]1OC(C(=O)NCc2nc3ccccc3[nH]2)=C[C@@H](c2ccc(Br)cc2)[C@@H]1CCCO`, the IC50 was 9390 nM.

On to `O=C(NCc1nc2ccccc2[nH]1)C1=C[C@@H](c2csc3ccccc23)C[C@@H](OCCCCO)O1`, for which the half-maximal inhibitory concentration (IC50) is 4650 nM. In the case of `O=C(NCc1nc2ccccc2[nH]1)C1=C[C@H](C2CC2)C[C@H](OCc2ccc(CO)cc2)O1`, the concentration for half-maximal inhibition (IC50) was 8110 nM.

Take `Clc1ccc(OCCSCc2nc3ccccc3[nH]2)cc1`: the IC50 was 9230 nM. With `O=C(NCc1nc2ccccc2[nH]1)C1=C[C@H](c2ccc(Br)cc2)C[C@H](OCc2ccc(CO)cc2)O1`, the half-inhibitory concentration (IC50) is 3520 nM. For the compound `Cc1[nH]c2ccc(Br)cc2c(=O)c1CN1CCCCCC1`, the IC50 result was “inactive”.

As to `O=C(CN1CCSC1=NCc1ccccc1)c1ccc(Cl)c(Cl)c1`, the IC50 was 3910 nM. For `O=C(Nc1ccc(F)c(Cl)c1)C1CC(=O)n2c(nc3ccccc32)N1` (stereo not drawn), the IC50 is 2910 nM.
